Active and inactive are the calls of the source. No cut-off for these calls is given here.
Columns and labels:
[1] = Inhibition of PP2A in human U-87 MG cell lysate using RRA(pT)VA as substrate; format: subcellular
[2] = system: U-87 MG; test: Cytotoxicity against human U-87 MG cells incubated for 48 hrs by CCK8 assay; format: functional, cell-based, U-87MG ATCC
[3] = Cytotoxicity against HEK293T cells incubated for 48 hrs by CCK8 assay; format: toxicity, cell-based, HEK-293T; conditions: human
[4] = Cytotoxicity against human BEAS-2B incubated for 48 hrs by CCK8 assay; format: toxicity, cell-based; conditions: BEAS-2B cells
[5] = system: U-87 MG; test: Induction of apoptosis in human U-87 MG cells assessed as G2/M phase cells at 5 uM incubated for 24 hrs by propidium iodide staining based flow cytometry analysis (reference value: 11.9%); format: functional, U-87MG ATCC
[6] = system: U-87MG ATCC; test: Upregulation of p21 expression in human U-87 MG cells at 6.25 to 100 uM after 24 hrs by Western blotting analysis; format: functional, cell-based; conditions: dose 6.25-100 µM
[7] = system: U-87MG ATCC; test: Downregulation of MGMT expression in human U-87 MG cells at 25 uM incubated for 24 hrs by Western blotting analysis; format: functional, cell-based
[8] = Cmax in Sprague-Dawley rat at 5 mg/kg, iv measured upto 24 hrs by LC-MS/MS method; format: ADME, organism-based; conditions: in vivo
[9] = Apparent volume of distribution in Sprague-Dawley rat at 5 mg/kg, iv measured upto 24 hrs by LC-MS/MS method; format: ADME, organism-based; conditions: in vivo, read-out: Vz
[10] = Apparent clearance in Sprague-Dawley rat at 25 mg/kg, po measured upto 24 hrs by LC-MS/MS method; format: ADME, organism-based; conditions: in vivo, read-out: CL(app) (converted)
[11] = Oral bioavailability in Sprague-Dawley rat at 25 mg/kg measured upto 24 hrs by LC-MS/MS method; format: ADME, organism-based; conditions: in vivo
[12] = system: U-87 MG; test: Antitumor activity against human U-87 MG cells xenografted in BALB/c nude mouse assessed as tumor growth inhibition at 3 mg/kg, po administered every other day for 18 days in presence of 40 mg/kg TMZ; format: functional, U-87MG ATCC; conditions: 432 h, time 18 day, read-out: TGI
[13] = system: U-87 MG; test: Antitumor activity against human U-87 MG cells xenografted in BALB/c nude mouse assessed as increase in p53 expression at 1.5 to 3 mg/kg, po measured after 4 hrs in presence of 40 mg/kg TMZ by Western blotting analysis; format: functional, organism-based; conditions: U-87MG ATCC, dose 1.5-3 mg/kg
[14] = system: U-87 MG; test: Antitumor activity against human U-87 MG cells xenografted in BALB/c nude mouse assessed as reduction in MGMT expression at 1.5 to 3 mg/kg, po measured after 4 hrs in presence of 40 mg/kg TMZ by Western blotting analysis; format: functional, organism-based; conditions: U-87MG ATCC, dose 1.5-3 mg/kg
[15] = Toxicity in BALB/c nude mouse xenografted with U-87 MG cells assessed as spleen damage at 1.5 to 3 mg/kg, po administered every other day for 18 days in presence of 40 mg/kg TMZ by H and E staining based assay; format: organism-based; conditions: in vivo, 432 h, dose 1.5-3 mg/kg, time 18 day
[16] = Toxicity in BALB/c nude mouse xenografted with U-87 MG cells assessed as lung damage at 1.5 to 3 mg/kg, po administered every other day for 18 days in presence of 40 mg/kg TMZ by H and E staining based assay; format: organism-based; conditions: in vivo, 432 h, dose 1.5-3 mg/kg, time 18 day

- IC50 [1]: 33.8 µM
- Cmax [8]: 8620 ng/mL
- Vd [9]: 1.32 L/kg
- CL/F [10]: 7.69 mL/min/kg
- bioavailability [11]: 82%
SMILES: O=C(O)[C@@H]1[C@H](C(=O)n2ccc3ccccc32)[C@H]2CC[C@@H]1O2
- IC50 [2]: 70.1 µM
- IC50 at 48 h [3]: > 200 µM
- IC50 at 48 h [4]: 57.8 µM
- Activity [5]: 10.9%
- Activity [6]: Active
- Activity [7]: Active
- inhibition in vivo at 3 mg/kg [12]: 87.7%
- Activity [13]: Active
- Activity [14]: Active
- Activity [15]: Non-Toxic
- Activity [16]: Non-Toxic

Source: ChEMBL document CHEMBL5584313, “Design and Synthesis of 7-Oxabicyclo[2.2.1]heptane-2,3-dicarboxylic Acid Derivatives as PP5 Inhibitors To Reverse Temozolomide Resistance in Glioblastoma Multiforme” (J Med Chem, 2024)
